Laboratory results taken from PubChem BioAssay (NCI).
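Following 48 hours of exposure in 96-well plates, responses at five concentrations were used to interpolate endpoints linearly. GI50 = concentration required for 50% inhibition of growth. Definition used: TGI = concentration required for complete inhibition of growth.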

Columns and labels:
Experiment in all cases: NCI anticancer screen, dose series, 48 h
SN12C renal = tested on: SN12C renal
NCI-H226 lung = tested on: NCI-H226 lung
ACHN renal = tested on: ACHN renal
K-562 leukemia = tested on: K-562 leukemia
SK-MEL-5 melanoma = tested on: SK-MEL-5 melanoma
CAKI-1 renal = tested on: CAKI-1 renal
SF-268 CNS = tested on: SF-268 CNS
MCF7 breast = tested on: MCF7 breast
UACC-257 melanoma = tested on: UACC-257 melanoma
SR leukemia = tested on: SR leukemia
RPMI-8226 leukemia = tested on: RPMI-8226 leukemia

Row | Structure (SMILES) | TGI (SN12C renal) | TGI (NCI-H226 lung) | TGI (ACHN renal) | TGI (K-562 leukemia) | TGI (SK-MEL-5 melanoma) | TGI (CAKI-1 renal) | TGI (SF-268 CNS) | TGI (MCF7 breast) | TGI (UACC-257 melanoma) | TGI (SR leukemia) | GI50 (CAKI-1 renal) | GI50 (RPMI-8226 leukemia) | TGI (RPMI-8226 leukemia) | GI50 (MCF7 breast)
1 | NC1CC2C3CCC2C1C3=O (stereo unspecified) | > 100 µM | > 100 µM | > 100 µM | > 100 µM | > 100 µM | > 100 µM | > 100 µM | > 100 µM | > 100 µM | > 100 µM | – | – | – | –
2 | [Cl-].[Rh+3].c1ccc(-c2ccnc3c2ccc2c(-c4ccccc4)ccnc23)cc1.c1ccc(-c2ccnc3c2ccc2c(-c4ccccc4)ccnc23)cc1.c1ccc(-c2ccnc3c2ccc2c(-c4ccccc4)ccnc23)cc1 | > 100 µM | > 100 µM | – | > 78.4 µM | 50.3 µM | > 100 µM | > 100 µM | > 100 µM | > 100 µM | – | 60.5 µM | 29.2 µM | > 100 µM | 71.3 µM
3 | Cc1ccc(S(=O)(=O)N2CCSCCSCCN(S(=O)(=O)c3ccc(C)cc3)CCN(S(=O)(=O)c3ccc(C)cc3)CC2)cc1 | > 100 µM | > 100 µM | > 100 µM | > 100 µM | > 100 µM | > 100 µM | > 100 µM | > 100 µM | > 100 µM | – | – | – | > 100 µM | –
4 | O=C(CSc1nnc(Cc2ccccc2)o1)Nc1ccc(Cl)cc1 | > 100 µM | > 100 µM | > 100 µM | > 100 µM | > 100 µM | > 100 µM | – | – | > 100 µM | – | – | – | > 100 µM | –
5 | Cc1cc2c(cc1O)CC[C@@H]1[C@@H]2CC[C@]2(C)[C@@H](O)CC[C@@H]12 | 31.2 µM | – | 51.9 µM | 13.2 µM | 16.1 µM | 59.6 µM | 46.8 µM | 26.1 µM | 42.5 µM | 5.5 µM | – | – | 19.2 µM | –
6 | Cc1ccc(/C=C2\NC(=S)N(CN3CCOCC3)C2=O)cc1 | > 100 µM | > 100 µM | > 100 µM | > 100 µM | > 100 µM | – | > 100 µM | > 100 µM | > 100 µM | > 100 µM | – | – | > 100 µM | –
7 | COc1cccc(NCC(=O)Nn2c(-c3ccccc3)nc3ccccc3c2=O)c1 | > 100 µM | > 100 µM | > 100 µM | > 100 µM | > 100 µM | – | > 100 µM | > 100 µM | > 100 µM | > 100 µM | – | – | > 100 µM | –
8 | CC(C)CCCC(C)[C@H]1CC[C@H]2[C@@H]3CC[C@H]4C[C@@H](CCC=C(c5cc(Cl)c(O)c(C(=O)OC(C)(C)C)c5)c5cc(Cl)c(O)c(C(=O)OC(C)(C)C)c5)CC[C@]4(C)[C@H]3CC[C@]12C (stereo partly specified) | > 50 µM | – | – | > 50 µM | > 50 µM | > 50 µM | > 50 µM | > 50 µM | – | – | – | – | > 50 µM | –
9 | O=C(O)Cc1ccc(N2N=C(c3ccccc3)CC2=O)cc1 | > 100 µM | > 100 µM | > 100 µM | > 100 µM | > 100 µM | > 100 µM | > 100 µM | > 100 µM | > 100 µM | > 100 µM | – | – | – | –
10 | CCOC(=O)c1c(C)n(Cc2ccccc2)c2c1cc(O)c1[nH]c3c(c12)CCCC3 | 17.8 µM | – | 23.9 µM | 10.9 µM | 15 µM | 24.5 µM | 5.16 µM | 13.3 µM | 52.4 µM | – | – | – | 4.97 µM | –
